Reference: patent publication US8906852B2 (MethylGene Inc., priority 2010, dated 2014)

These compounds were tested against T1, VEGFR/KDR (Homo sapiens, UniProt P35968) (assay: VEGFR/KDR kinase inhibition, DELFIA assay). Conditions: ATP 0.6 uM (2x Km), enzyme 5 nM.
T1 construct: made in house; host or cells: Sf9 cells (Spodoptera frugiperda), baculovirus
T1 sequence (P35968 806-1356): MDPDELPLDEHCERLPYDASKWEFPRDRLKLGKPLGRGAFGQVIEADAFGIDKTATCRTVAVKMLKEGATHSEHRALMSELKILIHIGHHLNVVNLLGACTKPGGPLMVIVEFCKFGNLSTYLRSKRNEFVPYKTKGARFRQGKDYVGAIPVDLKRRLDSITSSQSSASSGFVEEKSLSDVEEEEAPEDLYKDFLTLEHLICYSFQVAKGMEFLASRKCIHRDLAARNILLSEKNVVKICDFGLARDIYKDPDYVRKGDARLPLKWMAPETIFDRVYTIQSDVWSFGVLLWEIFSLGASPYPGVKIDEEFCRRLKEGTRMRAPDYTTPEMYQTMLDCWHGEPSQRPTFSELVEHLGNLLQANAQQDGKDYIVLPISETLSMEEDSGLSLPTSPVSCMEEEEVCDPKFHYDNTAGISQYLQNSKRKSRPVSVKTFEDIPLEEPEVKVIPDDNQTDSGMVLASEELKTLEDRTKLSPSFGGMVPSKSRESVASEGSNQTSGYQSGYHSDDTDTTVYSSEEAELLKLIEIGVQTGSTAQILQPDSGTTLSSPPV
Type: biochemical
Experimental: Inhibition of VEGFR/KDR is measured in a DELFIA™ assay (Perkin Elmer). The substrate poly(Glu4, Tyr) is immobilized onto black high-binding polystyrene 96-well plates. The coated plates are washed and stored at 4° C. During the assay, the enzyme is pre-incubated with inhibitor and Mg-ATP on ice in polypropylene 96-well plates for 4 minutes, and then transferred to the coated plates. The subsequent kinase reaction takes place at 30° C. for 10-30 minutes. ATP concentrations in the assay are 0.6 uM for VEGFR/KDR (2× the Km). Enzyme concentration is 5 nM. After incubation, the kinase reactions are quenched with EDTA and the plates are washed. Phosphorylated product is detected by incubation with Europium-labeled anti-phosphotyrosine MoAb. After washing the plates, bound MoAb is detected by time-resolved fluorescence in a Gemini SpectraMax reader (Molecular Devices). Compounds are evaluated over a range of concentrations, and IC50 values (concentration of compounds giving 50% inhibition of enzymatic activity) are determined.
Work on `O=C(Nc1ccc(Oc2ccnc3cc(-c4ccc(CN5CCN(CCN6CCOCC6)CC5)cn4)sc23)c(F)c1)NC1CC1` [Compound 54-A, 1-cyclopropyl-3-(3-fluoro-4-(2-(5-((4-(2-morpholinoethyl)piperazin-1-yl)methyl)pyridin-2-yl)thieno[3,2-b]pyridin-7-yloxy)phenyl)urea] yielded an IC50 of less than 50 nM.
`CN1CCCN(Cc2ccc(-c3cc4nccc(Oc5ccc(NC(=O)NC6CC6)cc5F)c4s3)nc2)CC1` [Compound 54-B, 1-cyclopropyl-3-(3-fluoro-4-(2-(5-((4-methyl-1,4-diazepan-1-yl)methyl)pyridin-2-yl)thieno[3,2-b]pyridin-7-yloxy)phenyl)urea] gave an IC50 of less than 50 nM.
In the case of `CN1CCC(CN2CCN(Cc3ccc(-c4cc5nccc(Oc6ccc(NC(=O)NC7CC7)cc6F)c5s4)nc3)CC2)CC1` [Compound 54-D, 1-cyclopropyl-3-(3-fluoro-4-(2-(5-((4-((1-methylpiperidin-4-yl)methyl)piperazin-1-yl)methyl)pyridin-2-yl)thieno[3,2-b]pyridin-7-yloxy)phenyl)urea], the IC50 is reported as less than 50 nM.
`CC(C)N1CCN(Cc2ccc(-c3cc4nccc(Oc5ccc(NC(=O)NC6CC6)cc5F)c4s3)nc2)CC1` [Compound 54-E, 1-cyclopropyl-3-(3-fluoro-4-(2-(5-((4-isopropylpiperazin-1-yl)methyl)pyridin-2-yl)thieno[3,2-b]pyridin-7-yloxy)phenyl)urea] showed an IC50 of less than 50 nM.
Work on `CS(=O)(=O)N1CCN(Cc2ccc(-c3cc4nccc(Oc5ccc(NC(=O)NC6CC6)cc5F)c4s3)nc2)CC1` [Compound 54-F, 1-cyclopropyl-3-(3-fluoro-4-(2-(5-((4-(methylsulfonyl)piperazin-l-yl)methyl)pyridin-2-yl)thieno[3,2-b]pyridin-7-yloxy)phenyl)urea] yielded an IC50 of less than 50 nM.
In the case of `O=C(Nc1ccc(Oc2ccnc3cc(-c4ccc(CN5CCN(CCn6ccnc6)CC5)cn4)sc23)c(F)c1)NC1CC1` [Compound 54-G, 1-(4-(2-(5-((4-(2-(1H-imidazol-1-yl)ethyl)piperazin-l-yl)methyl)pyridin-2-yl)thieno[3,2-b]pyridin-7-yloxy)-3-fIuorophenyl)-3-cyclopropylurea], the IC50 is reported as less than 50 nM.
`COCCN1CCN(Cc2ccc(-c3cc4nccc(Oc5ccc(NC(=O)NC6CC6)cc5F)c4s3)nc2)CC1` [Compound 56] gave an IC50 of less than 50 nM.
In the case of `N#CCCN1CCN(Cc2ccc(-c3cc4nccc(Oc5ccc(NC(=O)NC6CC6)cc5F)c4s3)nc2)CC1` [Compound 57, 1-(4-(2-(5-((4-(2-cyanoethyl)piperazin-1-yl)methyl)pyridin-2-yl)thieno[3,2-b]-pyridin-7-yloxy)-3-fluorophcnyl)-3-cyclopropylurea], the IC50 is reported as less than 50 nM.
Compound `CCOC(=O)C1CCN(Cc2ccc(-c3cc4nccc(Oc5ccc(NC(=O)NC6CC6)cc5F)c4s3)nc2)CC1` [Compound 58, ethyl 1-((6-(7-(4-(3-cyclopropylureido)-2-fluorophenoxy)-thieno[3,2-b]pyridin-2-yl)pyridin-3-yl)methyl)piperidine-4-carboxylate] has an IC50 of less than 50 nM.
With `CCOC(=O)CC1CCN(Cc2ccc(-c3cc4nccc(Oc5ccc(NC(=O)NC6CC6)cc5F)c4s3)nc2)CC1` [Compound 59, ethyl 2-(1-((6-(7-(4-(3-cyclopropylureido)-2-fluorophenoxy)-thieno[3,2-b]pyridin-2-yl)pyridin-3-yl)methyl)piperidin-4-yl)acelate] the IC50 was less than 50 nM.
In the case of `CCOC(=O)CN1CCN(Cc2ccc(-c3cc4nccc(Oc5ccc(NC(=O)NC6CC6)cc5F)c4s3)nc2)CC1` [Compound 60, ethyl 2-(4-((6-(7-(4-(3-cyclopropylureido)-2-fluorophenoxy)-thieno[3,2-b]pyridin-2-yl)pyridin-3-yl)methyl)piperazin-1-yl)acetate], the IC50 is reported as less than 50 nM.
`O=C(O)CN1CCN(Cc2ccc(-c3cc4nccc(Oc5ccc(NC(=O)NC6CC6)cc5F)c4s3)nc2)CC1` [Compound 61, 2-(4-((6-(7-(4-(3-cyclopropylureido)-2-fluorophenoxy)thieno[3,2-b]pyridin-2-yl)pyridin-3-yl)methyl)piperazin-1-yl)acetic acid] gave an IC50 of less than 50 nM.
Compound `O=C(Nc1ccc(Oc2ccnc3cc(-c4ccc(CN5CCC(C(=O)O)CC5)cn4)sc23)c(F)c1)NC1CC1` [Compound 62, l-((6-(7-(4-(3-cyclopropylureido)-2-fluorophenoxy)thieno[3,2-b]pyridin-2-yl)pyridin-3-yl)methyl)piperidine-4-carboxylic acid] has an IC50 of less than 50 nM.
In the case of `O=C(O)CC1CCN(Cc2ccc(-c3cc4nccc(Oc5ccc(NC(=O)NC6CC6)cc5F)c4s3)nc2)CC1` [Compound 63, 2-(l-((6-(7-(4-(3-cyclopropylureido)-2-fluorophenoxy)thieno[3,2-b]pyridin-2-yl)pyridin-3-yl)methyl)piperidin-4-yl)acetic acid], the IC50 is reported as less than 50 nM.
`CC(=O)N1CCN(Cc2ccc(-c3cc4nccc(Oc5ccc(NC(=O)NC6CC6)cc5F)c4s3)nc2)CC1` [Compound 66, 1-(4-(2-(5-((4-acetylpiperazin-1-yl)methyl)pyridin-2-yl)thieno[3,2-b]pyridin-7-yloxy)-3-fluorophenyl)-3-cyclopropylurea] gave an IC50 of less than 50 nM.
In the case of `O=C1CN(Cc2ccc(-c3cc4nccc(Oc5ccc(NC(=O)NC6CC6)cc5F)c4s3)nc2)CCN1` [Compound 67, l-cyclopropyl-3-(3-fluoro-4-(2-(5-((3-oxopiperazin-1-yl)methyl)pyridin-2-yl)thieno[3,2-b]-pyridin-7-yloxy)phenyl)urea], the IC50 is reported as less than 50 nM.
For `CCOC(=O)CCN1CCN(Cc2ccc(-c3cc4nccc(Oc5ccc(NC(=O)NC6CC6)cc5F)c4s3)nc2)CC1` [Compound 68, ethyl 3-(4-((6-(7-(4-(3-cyclopropyl-ureido)-2-fluorophenoxy)-thieno[3,2-b]-pyridin-2-yl)pyridin-3-yl)methyl)piperazin-1-yl)propanoate], the IC50 was less than 50 nM.
Work on `O=C(O)CCN1CCN(Cc2ccc(-c3cc4nccc(Oc5ccc(NC(=O)NC6CC6)cc5F)c4s3)nc2)CC1` [Compound 70, 3-(4-((6-(7-(4-(3-cyclopropylureido)-2-fluorophenoxy)thieno[3,2-b]pyridin-2-yl)pyridin-3-yl)methyl)piperazin-1-yl)propanoic acid] yielded an IC50 of less than 50 nM.
`O=C(Nc1ccc(Oc2ccnc3cc(-c4ccc(CN5CCNCC5=O)cn4)sc23)c(F)c1)NC1CC1` [Compound 72] was tested, and the IC50 was less than 50 nM.
In the case of `O=C(Nc1ccc(Oc2ccnc3cc(-c4ccc(CN5C[C@@H]6C[C@H]5CN6)cn4)sc23)c(F)c1)NC1CC1` [Compound 73], the IC50 is reported as less than 50 nM.
With `CC(C)[C@H](N)C(=O)N1CCN(Cc2ccc(-c3cc4nccc(Oc5ccc(NC(=O)NC6CC6)cc5F)c4s3)nc2)CC1` [Compound 76, (S)-1-(4-(2-(5-((4-(2-amino-3-methylbutanoyl)piperazin-1-yl)methyl)pyridin-2-yl)thieno[3,2-b]pyridin-7-yloxy)-3-fluorophenyl)-3-cyclopropylurea] the IC50 was less than 50 nM.
`NCC(=O)N1CCN(Cc2ccc(-c3cc4nccc(Oc5ccc(NC(=O)NC6CC6)cc5F)c4s3)nc2)CC1` [Compound 77, 1-(4-(2-(5-((4-(2-aminoacetyl)piperazin-1-yl)methyl)pyridin-2-yl)thieno[3,2-b]-pyridin-7-yloxy)-3-fluorophenyl)-3-cyclopropylurea] showed an IC50 of less than 50 nM.
In the case of `CC(C)[C@H](N)C(=O)OCCN1CCN(Cc2ccc(-c3cc4nccc(Oc5ccc(NC(=O)NC6CC6)cc5F)c4s3)nc2)CC1` [Compound 79, (S)-2-(4-((6-(7-(4-(3-cyclopropylureido)-2-fluorophenoxy)thieno[3,2-b]pyridin-2-yl)pyridin-3-yl)methyl)piperazin-1-yl)ethyl 2-amino-3-methylbutanoate], the IC50 is reported as less than 50 nM.
In the case of `CNC(=O)CCN1CCN(Cc2ccc(-c3cc4nccc(Oc5ccc(NC(=O)NC6CC6)cc5F)c4s3)nc2)CC1` [Compound 81, 3-(4-((6-(7-(4-(3-cyclopropylureido)-2-fluorophenoxy)thieno[3,2-b]pyridin-2-yl)pyridin-3-yl)methyl)piperazin-1-yl)-N-methylpropanamide], the IC50 is reported as less than 50 nM.
`NC(=O)CCN1CCN(Cc2ccc(-c3cc4nccc(Oc5ccc(NC(=O)NC6CC6)cc5F)c4s3)nc2)CC1` [Compound 82, 3-(4-((6-(7-(4-(3-cyclopropylureido)-2-fIuorophenoxy)-thieno[3,2-b]pyridin-2-yl)pyridin-3-yl)methyl)piperazin-l-yl)propanamide] gave an IC50 of less than 50 nM.
In the case of `O=C(Nc1ccc(Oc2ccnc3cc(-c4ccc(CN5CCN(CC(F)(F)F)CC5)cn4)sc23)c(F)c1)NC1CC1` [Compound 84, 1-cyclopropyl-3-(3-fluoro-4-(2-(5-((4-(2,2,2-trifluoroethyl)piperazin-1-yl)methyl)-pyridin-2-yl)thieno[3,2-b]pyridin-7-yloxy)phenyl)urea], the IC50 is reported as less than 50 nM.
`COCCN(Cc1ccc(-c2cc3nccc(Oc4ccc(NC(=O)NC5CC5)cc4F)c3s2)nc1)C(=O)COC` [Compound 85] gave an IC50 of less than 50 nM.
Compound `CCC(=O)N(CCOC)Cc1ccc(-c2cc3nccc(Oc4ccc(NC(=O)NC5CC5)cc4F)c3s2)nc1` [Compound 86, N-((6-(7-(4-(3-cyclopropylureido)-2-fluorophenoxy)thieno[3,2-b]pyridin-2-yl)pyridin-3-yl)methyl)-N-(2-methoxyethyl)propionamide] has an IC50 of less than 50 nM.
Compound `COCCN(Cc1ccc(-c2cc3nccc(Oc4ccc(NC(=O)NC5CC5)cc4F)c3s2)nc1)C(=O)[C@@H](N)C(C)(C)C` [Compound 88, (S)-2-amino-N-((6-(7-(4-(3-cyclopropylureido)-2-fluorophenoxy)thieno[3,2-b]pyridin-2-yl)pyridin-3-yl)methyl)-N-(2-methoxyethyl)-3,3-dimethylbutanamide] has an IC50 of less than 50 nM.
